Reference: patent US20250144107A1, “USE OF A PIKFYVE INHIBITOR IN COMBINATION WITH IMMUNOTHERAPY” (The Regents of the University of Michigan, priority 2023, published 2025)

What was measured:
[1] = tested on: immune cells enriched from spleens; assay: Immune cells from spleens of non-tumor-bearing mice; format: in vivo
Protocol: FIG. 13A is a box and whisker plot of relative median fluorescent intensity of surface XCR1 in CD45^+ cells of splenic DCs in PIKfyve inhibitor-treated non-tumor-bearing mice.
FIG. 13B is a box and whisker plot of cDC1 cells from spleens of mice treated with vehicle or apilimod, 30 mg/kg daily, after 5 days of treatment.
FIG. 18A is a series of nine scatter plots of the gating strategy for CD69^+ effector, naïve, terminally differentiated, resident memory, central memory, and exhausted CD8^+ T cells from spleens of non-tumor-bearing mice treated with vehicle or apilimod, 30 mg/kg daily, after 5 days of treatment.
FIG. 18H is a series of nine scatter plots of the gating strategy for FIG. 13A-B and FIG. 18I for myeloid cells and cDCs.

[2] = tested on: IL-12 in cDCs; assay: Il12b RT-qPCR and IL-12 ELISA in cDCs; format: cell-based, mice
Protocol: FIG. 21E is a bar graph comparison of Il12b expression fold change by RT-qPCR in apilimod vs. DMSO-treated, 3 or 12 hours, cDCs after 6 days of culture.
FIG. 21F is a bar graph comparison of IL-12p40 protein levels by ELISA in media from apilimod vs. DMSO-treated, 12 hours, cDCs after 6 days of culture.
FIG. 21G is a bar graph Supp. 5 g Comparison of IL-12p70 protein levels by ELISA in media from apilimod vs. DMSO-treated, 24 hours, cDCs after 6 days of culture.

[3] = tested on: NF-κB gene targets in cDCs; assay: RNA-seq and gene set enrichment in cDCs; format: cell-based, mice
Protocol: FIG. 14B is a line graph of the enrichment of NF-κB target genes in DMSO or apilimod-treated, 3 hours, cDCs after 6 days of culture.
FIG. 14C is a line graph of the enrichment of NF-κB target genes in DMSO or apilimod-treated, 8 hours, cDCs after 6 days of culture.
FIG. 14H is a scatter plot of differentially expressed genes in apilimod versus DMSO-treated, 8 hours, cDCs after 6 days of culture.
FIG. 21C is a line graph of MSigDB Hallmark “TNF_SIGNALING_VIA_NFκB” in apilimod vs. DMSO-treated, 3 hours, cDCs after 6 days of culture.
FIG. 21D is a line graph of MSigDB Hallmark “TNF_SIGNALING_VIA_NFκB” in apilimod vs. DMSO-treated, 8 hours, cDCs after 6 days of culture.
The Eukaryote Total RNA Nano kit (Agilent Technologies; catalog #: 5067-1511) was used to check the quality of RNAs on an Agilent bioanalyzer. A total of 800 ng RNA was then used for library preparation with the KAPA RNA Hyper+RiboErase HMR kit (Roche Diagnostics; Catalog #: 08098140702), following the instructions from the user manual. Briefly, the ribosomal RNA was removed by enzymatic digestion, and then the RNA was fragmented to around 200-300 bp with heat in fragmentation buffer. Synthesis of cDNA was conducted with reverse transcriptase and random primer, and then the second strand was synthesized to generate double-stranded cDNA. Following the repair of the DNA ends, NEB adapter was ligated, and the DNA are amplified with the KAPA HiFi HotStart mix and NEB dual barcode. Quality of the library was checked using the bioanalyzer with the Agilent DNA 1000 Kit (Agilent Technologies; catalog #: 5067-1504), and the sequencing was performed using NovaSeq 6000. The RNA-sequencing data was analyzed with packages limma and edgeR See, e.g., Ritchie, M. E. et al., Nucleic Acids Res. 2015; 43(7):47; Phipson, B. et al., Ann. Appl. Stat. 2016; 10(2):946-963; Robinson, M. D. et al., Bioinformatics 2010; 26(1):139-40. […] The analyzed hallmark pathways were collected from the Molecular Signatures Database See, e.g., Subramanian, A. et al., Proc. Natl. Acad. Sci. USA 2005; 102(43):15545-15550; Liberzon, A. et al., Cell Syst. […]

[4] = tested on: cDCs co-cultured with OT-I and OT-II cells; assay: cDC antigen presentation and OT-I/OT-II co-culture; format: cell-based, mice
Protocol: FIG. 13T is a box and whisker plot of the percentage of IFNγ^+ OT-I cells after 72 hours of co-culture with DMSO or apilimod pre-treated cDCs with or without sOVA, 10 μg/ml.
FIG. 13V is a box and whisker plot of the percentage of IFNγ^+ OT-II cells after 72 hours of co-culture with DMSO or apilimod pre-treated cDCs with or without sOVA, 10 μg/ml.
FIG. 19G is a line graph (Left) and box and whisker plot (Right) of relative median fluorescent intensity of surface H-2kb-SIINFEKL in DMSO or apilimod-treated cDCs with or without 12 hours of pOVA, 100 ng/ml, treatment.
FIG. 19H is a scatter plot (Left) and box and whisker plot (Right) of relative median fluorescent intensity of percent H2kb-SIINFEKL^+ cells in DMSO or apilimod-treated cDCs with or without 12 hours of pOVA, 100 ng/ml, treatment.
FIG. 20D is a scatter plot (Left) and box and whisker plot (Right) of percentage of IFNγ^+ OT-I cells after 48 hours of co-culture with DMSO or apilimod pre-treated cDCs with or without pOVA, 100 ng/ml.
FIG. 20E is a scatter plot (Left) and box and whisker plot (Right) of percentage of granzyme B^+ OT-I cells after 48 hours of co-culture with DMSO or apilimod pre-treated cDCs with or without pOVA, 100 ng/ml.
FIG. 20H is a box and whisker plot of the percent of Ki67^+ OT-I cells after 72 hours of co-culture with DMSO or apilimod pre-treated cDCs with or without sOVA, 10 μg/ml.
FIG. 20I is a box and whisker plot of the percent of Ki67^+ OT-II cells after 72 hours of co-culture with DMSO or apilimod pre-treated cDCs with or without sOVA, 10 μg/ml.

[5] = 30 mg/kg daily, 5 days, vs vehicle

Structure (SMILES): Cc1cccc(/C=N/Nc2cc(N3CCOCC3)nc(OCCc3ccccn3)n2)c1 [apilimod, N-[(E)-(3-methylphenyl)methylideneamino]-6-morpholin-4-yl-2-(2-pyridin-2-ylethoxy)pyrimidin-4-amine]
- percentage of terminally differentiated, memory or exhausted CD8+ T cells [1, 5]: no changes
- proportions of CD69+CD8+ T cells [1, 5]: increased
- total surface expression of CD11c, F4/80, or CD11b [1, 5]: no change
- total surface expression of XCR1 [1, 5]: increase
- relative percentage of cDC1s versus cDC2 cells ([1]; within the cDC subset): increase
- secretion of IL-12p40 ([2]; ELISA): increased
- secretion of IL-12p70 ([2]; ELISA): increased
- Il12b transcripts ([2]; RT-qPCR): increased
- enrichment of TNF_SIGNALING_VIA_NFκB gene set ([3]; 3 and 8 hours, vs DMSO): positive enrichment
- Sqstm1 expression ([3]; 8 hours, vs DMSO): most significantly upregulated gene
- enrichment of direct NF-κB gene targets ([3]; early time points): positively enriched
- total intensity and percentage of cells with H2-kb-SIINFEKL surface expression ([4]; pOVA, vs DMSO): greater
- T cell activation (IFNγ+ and granzyme B+ OT-I cells) ([4]; peptide antigen-loaded cDCs, vs DMSO): increase
- percentages of Ki67+ and IFNγ+ OT-I cells ([4]; sOVA-loaded cDCs, vs DMSO): increases
- percentages of Ki67+ and IFNγ+ OT-II cells ([4]; sOVA-loaded cDCs, vs control): higher percentages
